In article PMC11372839, “Unraveling the Potential of Vitamin B3-Derived Salts with a Salicylate Anion as Dermal Active Agents for Acne Treatment” (Molecular Pharmaceutics, 2024):
≈ marks a conversion by molar mass, not a printed value. Where two headings read alike, the source gives them in different places.

What was measured:
Candida albicans = assay: MIC and MFC determination, microdilution method; type: cell-based; conditions: clinical strain, tested 4 096 to 0.125 μg/mL, b = out of range
Description: (§1) The antimicrobial activities of the compounds were tested against clinical strains of an aerobic Gram-negative bacterium—Pseudomonas aeruginosa (P. aeruginosa), facultative anaerobic Gram-positive bacteria—Staphylococcus aureus (S. aureus) and Staphylococcus epidermidis (S. epidermidis), anaerobic Gram-positive bacterium—Cutibacterium acnes (C. acnes), and yeast-like fungus—Candida albicans (C. albicans).
(§2) Aerobic and facultative anaerobic bacteria cultures were grown in Brain Heart Infusion broth (BHI, bioMerieux, France) at 35 °C ± 1 °C for 18 h, C. acnes cultures were grown in thioglycolate broth with resazurin (TGB, bioMerieux, France) at 35 ± 1 °C for 48 h, and yeast cultures were grown in Sabouraud dextrose broth (SDB, Merck, Germany) at 35 ± 1 °C for 24 h. After incubation, each culture was diluted in a suitable liquid medium: P. aeruginosa, S. aureus, and S. epidermidis—Mueller–Hinton broth (MHB; Oxoid, UK); C. acnes—TGB; and C. albicans—SDB, to obtain a final suspension containing about 10^6 CFU/mL.
(§3) The microdilution method was employed to determine the compounds’ MIC (Minimal Inhibitory Concentration) and MBC/MFC (Minimal Bactericidal Concentration/Minimal Fungicidal Concentration) against the tested bacterial and fungal strains.
(§4) The compounds were serially diluted (2-fold) in the respective media (P. aeruginosa, S. aureus, and S. epidermidis—MHB, C. acnes—TGB, and C. albicans—SDB in 96-well plates), and the microbial suspensions were added. The compounds were tested in the final concentration range of 4 096 to 0.125 μg/mL, and the final microbial inoculum was approximately 5 ×10^5 CFU/mL. The tests were incubated at 35 °C ± 1 °C for 18 h (P. aeruginosa, S. aureus, and S. epidermidis) or 24 h (C. albicans) or 48 h (C. acnes). C. acnes was incubated in an anaerobic atmosphere using a GENbag anaer (bioMerieux, France). Media (without the strains) added to the different concentrations of tested compounds and media inoculated with microbial suspension were used as a negative control and growth control, respectively.
(§5) The MIC was defined as the lowest concentration at which visible growth was inhibited. MBC and MFC concentrations were determined as an extension of the MIC test. […] The plates were incubated at 35 ± 1 °C for 18–72 h. C. acnes was incubated in an anaerobic atmosphere. The MBC/MFC was defined as the lowest concentration at which no growth was observed. All tests were performed in duplicate.

Pseudomonas aeruginosa = assay: MIC and MBC determination, microdilution method; type: cell-based; conditions: for MIC: 18 h, read-out: MIC, P. aeruginosa
Description: as §1, §2, §3, §4, §5

Cutibacterium acnes = assay: MIC and MBC determination, microdilution method; type: cell-based; conditions: Cutibacterium acnes; for MIC: 48 h, read-out: MIC, C. acnes; for MBC: read-out: MBC, C. acnes
Description: as §1, §2, §3, §4, §5

Artemia franciscana = assay: Ecotoxicity toward aquatic life, Artoxkit M immobilization test; type: in vivo; conditions: for EC50: Artemia franciscana; for Class: acute toxicity rating scale by Fish and Wildlife Service
Description: To determine the EC50 parameter for compounds, tests were carried out on marine crustaceans—Artemia franciscana (A. franciscana). The methodology proposed in the Artoxkit M test (MicroBioTests Inc., Gent, Belgium) was developed according to the ASTM E1440-91 standard.
The hatching process was started first. For this purpose, 50 mg of cysts was transferred to the Petri dishes attached to the Artoxkit M set, which were then immersed in 10 mL of artificial seawater with a salinity of 35‰ (a medium for the development of the tested organisms, as well as a solvent for preparing solutions of the tested compounds) and placed at a temperature of 25 °C, with access to light (6000–10,000 lux) for 30 h. Then, 2 h before placing them on the Artoxkit M plates, 20 mg of spirulina was added to cultured artemias. In addition, 1 h before the analysis, the used seawater was oxygenated by passing a stream of air through the solution. To each of the four cells in a given row of a plate from the Artoxkit M kit, 1 mL of solution at the specified concentrations (or the appropriate medium in the case of a control) were introduced. In the first column of cells (a control sample and five selected concentrations), no less than 30 artemias were placed from previously prepared Petri dishes. Then, from the first cell in the first column, artemias were collected at the selected concentration and added to the next three cells in the selected row, 10 organisms per cell. After the organisms were introduced into the appropriate cells, the plates were covered with Parafilm and then closed with a plastic cap. The prepared kit was incubated at 25 °C and protected from light. Number of motionless organisms were counted after 24 and 48 h. Immobilization was then calculated (eq 1) in relation to the number of organisms at the start of the test: [drawing 1] 1
Next, the dependence between the effect and concentration of the tested compounds was plotted, and on this basis, an EC50 value was determined.

Solubility in PBS = conditions: for Solubility in PBS, Class: Pharmacopeia solubility class, PBS pH 7.4, 25 °C
Description: The solubility in PBS solution was determined by placing 1 g (±0.0001) of tested compound in a round-bottom flask and adding specific parts of the PBS solution in portions until full dissolution. The samples were vigorously stirred for at least 5 min before the addition of the next portion of PBS, and the systems were thermostated at 25 °C. Three repetitions of the measurement were performed for each of the compounds.
Most studies on the solubility of novel APIs are carried out with pure water, aqueous PBS solutions were much more preferred due to their higher similarity to intra- and intercellular media in epidermis, while envisaging their use in transdermal delivery and skin care applications.[60] […] The collected data are presented in Figure 8 (as well as in Table S6 in the Supporting Information).

[1] = clinical strain, anaerobic, tested 4 096 to 0.125 μg/mL, b = out of range
[2] = immobilization, motionless organisms counted after 24 and 48 h, 25 °C, read-out: EC50
[3] = toxicity range of EC50, read-out: Range
[4] = volume of PBS (pH 7.4) to dissolve 1 g, 25 °C

Structure (SMILES)	MIC (Candida albicans; 24 h, read-out: MIC, C. albicans) [µg/mL]	MFC (Candida albicans; read-out: MFC, C. albicans) [µg/mL]	MIC (Pseudomonas aeruginosa; clinical strain, tested 4 096 to 0.125 μg/mL, b = out of range) [µg/mL]	MBC (Pseudomonas aeruginosa; clinical strain, tested 4 096 to 0.125 μg/mL, b = out of range, read-out: MBC, P. aeruginosa) [µg/mL]	MIC (Cutibacterium acnes; [1]) [µg/mL]	MBC (Cutibacterium acnes; [1]) [µg/mL]	EC50 (Artemia franciscana; [2]) [µg/mL]	EC50 (Artemia franciscana; [3]) [µg/mL]	Class (Artemia franciscana)	Solubility in PBS, PBS [ml] (Solubility in PBS; pH 7.4) [mL]	Solubility in PBS, Class (Solubility in PBS)	Solubility in PBS, PBS [ml] (Solubility in PBS; [4]) [mL]	MIC (Pseudomonas aeruginosa) [µg/mL]	MIC (Cutibacterium acnes) [µg/mL]	MBC (Cutibacterium acnes) [µg/mL]
O=C(O)c1ccccc1O [SAL, salicylic acid, reference compound]	2050 (≈ 14.8 mM)	2050 (≈ 14.8 mM)	2050 (≈ 14.8 mM)	4100 (≈ 29.7 mM)	1020 (≈ 7.41 mM)	4100 (≈ 29.7 mM)	300 (≈ 2.17 mM)	100 to 1000 (≈ 0.724 to 7.24 mM)	Practically Nontoxic (100-1000)	100 to 1000	–	–	–	–	–
CCCCCCCC[n+]1cccc(C(N)=O)c1.O=C([O-])c1ccccc1O [compound 4]	–	–	–	–	–	–	360	100 to 1000	Practically Nontoxic (100-1000)	–	Soluble (10-30)	10 to 30	–	–	–
CCCCCCCCCC[n+]1cccc(C(N)=O)c1.O=C([O-])c1ccccc1O [compound 5]	–	–	–	–	–	–	138	100 to 1000	Practically Nontoxic (100-1000)	–	Slightly Soluble (100-1000)	100 to 1000	1020	1020	1020
CCCCCC[n+]1cccc(C(N)=O)c1.O=C([O-])c1ccccc1O [compound 3]	–	–	–	–	–	–	692	100 to 1000	Practically Nontoxic (100-1000)	–	Very Soluble (<1)	< 1	–	–	–
